What is called Vmax is the rate approached at saturating substrate.

Among the data in ChEMBL document CHEMBL3526086, “Identification of the oxidative and conjugative enzymes involved in the biotransformation of brivanib” (Drug Metab Dispos, 2012) are Drug metabolism, CL and Vmax values, retold here.

Type in all cases: ADME
In one data set the target is Sulfotransferase 1E1 (Homo sapiens, UniProt P49888). Kind of data set: Drug metabolism assessed as human SULT1E1-mediated (R)-1-(4-(4-fluoro-2-methyl-1H-indol-5-yloxy)-5-methylpyrrolo[1,2-f][1,2,4]triazin-6-yloxy)propane-2-sulfonic acid formation at 2 and 20 uM for 30 mins by LC/MS analysis in presence of PAPS. The conditions noted are these: 0.5 h.
The target of another data set is Cytochrome P450 2E1 (Homo sapiens, UniProt P05181). Kind of data set: Drug metabolism in human liver microsomes assessed as 50 uM diethyldithiocarbamate-mediated inhibition of CYP2E1-mediated (R)-1-(4-(4-fluoro-2-(hydroxymethyl)-1H-indol-5-yloxy)-5-methylpyrrolo[1,2-f][1,2,4]triazin-6-yloxy)propan-2-ol formation at 2 and 20 uM for 30 mins by LC/MS analysis. The note with it: 0.5 h. (Liver microsomes are vesicles of endoplasmic reticulum, rich in cytochrome P450 enzymes.)

Data set [1] has as its target T1, Cytochrome P450 2B6 (Homo sapiens, UniProt P20813).
T1 sequence (P20813 whole entry): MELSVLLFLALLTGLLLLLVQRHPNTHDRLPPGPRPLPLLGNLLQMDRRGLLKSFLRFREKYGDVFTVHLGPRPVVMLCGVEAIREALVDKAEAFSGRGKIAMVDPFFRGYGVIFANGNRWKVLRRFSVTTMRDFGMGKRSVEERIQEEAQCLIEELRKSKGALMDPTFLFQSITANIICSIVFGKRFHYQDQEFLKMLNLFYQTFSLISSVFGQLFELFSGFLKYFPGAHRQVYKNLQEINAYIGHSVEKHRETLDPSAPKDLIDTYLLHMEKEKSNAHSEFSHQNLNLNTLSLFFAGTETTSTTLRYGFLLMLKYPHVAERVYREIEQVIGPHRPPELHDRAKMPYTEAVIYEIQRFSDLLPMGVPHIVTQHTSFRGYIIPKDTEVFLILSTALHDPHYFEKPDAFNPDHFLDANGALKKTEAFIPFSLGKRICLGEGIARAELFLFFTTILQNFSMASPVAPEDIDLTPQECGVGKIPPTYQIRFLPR
The data set can be described thus: Drug metabolism in human liver microsomes assessed as monoclonal antibody-mediated inhibition of CYP2B6-mediated (R)-1-(4-(4-fluoro-2-(hydroxymethyl)-1H-indol-5-yloxy)-5-methylpyrrolo[1,2-f][1,2,4]triazin-6-yloxy)propan-2-ol formation at 2 and 20 uM for 30 mins by LC/MS analysis. The note with it: 0.5 h.

The target of a further data set is Cytochrome P450 2D6 (Homo sapiens, UniProt P10635). The data set can be described thus: Drug metabolism in human liver microsomes assessed as 1 uM quinidine-mediated inhibition of CYP2D6-mediated(R)-1-(4-(4-fluoro-2-(hydroxymethyl)-1H-indol-5-yloxy)-5-methylpyrrolo[1,2-f][1,2,4]triazin-6-yloxy)propan-2-ol formation at 2 and 20 uM for 30 mins by LC/MS analysis. The conditions noted are these: 0.5 h.

For data set [2], the target named is T1, Cytochrome P450 2B6. The data set can be described thus: Drug metabolism assessed as human CYP2B6-mediated (R)-1-(4-(4-fluoro-2-(hydroxymethyl)-1H-indol-5-yloxy)-5-methylpyrrolo[1,2-f][1,2,4]triazin-6-yloxy)propan-2-ol formation at 2 and 20 uM for 20 mins by LC/MS analysis in presence of NADPH. The conditions noted are these: recombinant enzyme.
A further data set concerns the target T2, Cytochrome P450 2A6 (Homo sapiens, UniProt P11509).
T2 sequence (P11509 whole entry): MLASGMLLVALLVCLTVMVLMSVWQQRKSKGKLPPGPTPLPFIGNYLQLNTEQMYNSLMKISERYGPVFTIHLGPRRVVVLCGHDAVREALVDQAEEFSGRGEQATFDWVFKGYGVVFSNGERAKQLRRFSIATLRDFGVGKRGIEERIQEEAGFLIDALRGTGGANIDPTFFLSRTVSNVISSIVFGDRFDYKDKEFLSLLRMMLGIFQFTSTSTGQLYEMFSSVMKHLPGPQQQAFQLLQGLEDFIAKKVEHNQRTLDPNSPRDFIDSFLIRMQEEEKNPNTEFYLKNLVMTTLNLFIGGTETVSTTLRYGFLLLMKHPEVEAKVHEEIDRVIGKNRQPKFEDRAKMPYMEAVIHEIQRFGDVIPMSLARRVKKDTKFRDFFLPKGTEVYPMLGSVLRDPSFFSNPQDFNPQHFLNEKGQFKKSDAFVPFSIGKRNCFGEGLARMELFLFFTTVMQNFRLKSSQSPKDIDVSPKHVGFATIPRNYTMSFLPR
The data set can be described thus: Drug metabolism in human liver microsomes assessed as 2 uM tranylcypromine-mediated inhibition of CYP2A6-mediated (R)-1-(4-(4-fluoro-2-(hydroxymethyl)-1H-indol-5-yloxy)-5-methylpyrrolo[1,2-f][1,2,4]triazin-6-yloxy)propan-2-ol formation at 2 and 20 uM for 30 mins by LC/MS analysis. The note with it: 0.5 h.

In a further data set the target is Cytochrome P450 3A4 (Homo sapiens, UniProt P08684). The data set can be described thus: Activity of human CYP3A4 assessed as intrinsic clearance for enzyme-mediated (R)-1-(4-(4-fluoro-2-(hydroxymethyl)-1H-indol-5-yloxy)-5-methylpyrrolo[1,2-f][1,2,4]triazin-6-yloxy)propan-2-ol formation per picomole enzyme in presence of NADPH.
In data set [3] the test system is Liver microsome. The data set can be described thus: Drug metabolism in human liver microsomes assessed as (R)-1-(4-(4-fluoro-2-(hydroxymethyl)-1H-indol-5-yloxy)-5-methylpyrrolo[1,2-f][1,2,4]triazin-6-yloxy)propan-2-ol formation at 2 and 20 uM for 30 mins by LC/MS analysis in presence of antibody for CYP3A4/5. The conditions noted are these: 0.5 h.
The test system of data set [4] is Liver microsome. Kind of data set: Drug level in human liver microsomes assessed as compound formation treated with 2 uM [14C]brivanib alaninate for 60 mins by LC/MS analysis in presence of NADPH. The note with it: 1 h.
In data set [5] the test system is Liver microsome. Kind of data set: Drug level in human liver microsomes assessed as compound formation treated with 2 uM [14C]brivanib alaninate for 60 mins by LC/MS analysis. The conditions noted are these: 1 h.
Data set [6] in a line: Activity of CYP3A4/CYP1A2 in human liver microsomes assessed as enzyme-mediated (R)-1-(4-(4-fluoro-2-(hydroxymethyl)-1H-indol-5-yloxy)-5-methylpyrrolo[1,2-f][1,2,4]triazin-6-yloxy)propan-2-ol formation per mg protein in presence of NADPH.
Data set [7] addresses T1, Cytochrome P450 2B6. Kind of data set: Drug metabolism in human liver microsomes assessed as 50 uM orphenadrine-mediated inhibition of CYP2B6-mediated (R)-1-(4-(4-fluoro-2-(hydroxymethyl)-1H-indol-5-yloxy)-5-methylpyrrolo[1,2-f][1,2,4]triazin-6-yloxy)propan-2-ol formation at 2 and 20 uM for 30 mins by LC/MS analysis. The note with it: 0.5 h.
Data set [8] deals with Liver microsome. Kind of data set: Drug metabolism in human liver microsomes assessed as (R)-1-(4-(4-fluoro-2-(hydroxymethyl)-1H-indol-5-yloxy)-5-methylpyrrolo[1,2-f][1,2,4]triazin-6-yloxy)propan-2-ol formation at 2 and 20 uM for 30 mins by LC/MS analysis in presence of antibody for CYP1A2. The conditions noted are these: 0.5 h.

Cytochrome P450 2E1, sequence (P05181 whole entry): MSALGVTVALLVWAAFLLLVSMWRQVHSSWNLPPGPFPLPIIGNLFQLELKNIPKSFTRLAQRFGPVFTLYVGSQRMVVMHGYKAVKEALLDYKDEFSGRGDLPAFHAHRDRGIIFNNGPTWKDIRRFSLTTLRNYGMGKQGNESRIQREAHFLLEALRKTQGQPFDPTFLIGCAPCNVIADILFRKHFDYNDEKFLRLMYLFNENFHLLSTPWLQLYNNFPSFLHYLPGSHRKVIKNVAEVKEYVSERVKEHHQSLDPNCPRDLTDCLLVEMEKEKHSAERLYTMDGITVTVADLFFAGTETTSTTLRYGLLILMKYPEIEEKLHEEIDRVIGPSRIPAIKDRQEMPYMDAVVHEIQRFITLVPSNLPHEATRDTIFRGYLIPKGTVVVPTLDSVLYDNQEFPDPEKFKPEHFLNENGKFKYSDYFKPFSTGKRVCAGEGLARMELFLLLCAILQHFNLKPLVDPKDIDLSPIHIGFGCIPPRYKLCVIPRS
Sulfotransferase 1E1, sequence (P49888 whole entry): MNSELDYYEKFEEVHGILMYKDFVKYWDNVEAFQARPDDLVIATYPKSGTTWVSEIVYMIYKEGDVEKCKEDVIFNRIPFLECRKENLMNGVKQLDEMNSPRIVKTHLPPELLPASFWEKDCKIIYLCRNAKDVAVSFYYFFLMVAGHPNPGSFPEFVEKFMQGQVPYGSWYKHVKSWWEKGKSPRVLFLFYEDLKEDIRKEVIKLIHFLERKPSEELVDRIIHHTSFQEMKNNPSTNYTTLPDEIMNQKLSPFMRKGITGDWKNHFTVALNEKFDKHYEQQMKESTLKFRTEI
Cytochrome P450 2D6, sequence (P10635 whole entry): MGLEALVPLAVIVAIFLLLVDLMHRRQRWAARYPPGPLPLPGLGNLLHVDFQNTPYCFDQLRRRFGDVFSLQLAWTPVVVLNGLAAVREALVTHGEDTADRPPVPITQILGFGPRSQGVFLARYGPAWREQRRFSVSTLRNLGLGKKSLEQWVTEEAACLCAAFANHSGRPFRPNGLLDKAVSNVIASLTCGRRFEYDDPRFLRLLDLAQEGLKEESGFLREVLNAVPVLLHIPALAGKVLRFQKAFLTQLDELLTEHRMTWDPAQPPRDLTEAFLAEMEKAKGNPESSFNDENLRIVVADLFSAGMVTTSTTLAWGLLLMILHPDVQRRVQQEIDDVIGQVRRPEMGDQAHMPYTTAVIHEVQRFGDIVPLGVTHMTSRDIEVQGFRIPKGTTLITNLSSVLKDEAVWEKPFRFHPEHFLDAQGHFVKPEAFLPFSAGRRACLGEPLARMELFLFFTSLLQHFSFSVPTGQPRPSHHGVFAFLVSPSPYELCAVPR
Cytochrome P450 3A4, sequence (P08684 whole entry): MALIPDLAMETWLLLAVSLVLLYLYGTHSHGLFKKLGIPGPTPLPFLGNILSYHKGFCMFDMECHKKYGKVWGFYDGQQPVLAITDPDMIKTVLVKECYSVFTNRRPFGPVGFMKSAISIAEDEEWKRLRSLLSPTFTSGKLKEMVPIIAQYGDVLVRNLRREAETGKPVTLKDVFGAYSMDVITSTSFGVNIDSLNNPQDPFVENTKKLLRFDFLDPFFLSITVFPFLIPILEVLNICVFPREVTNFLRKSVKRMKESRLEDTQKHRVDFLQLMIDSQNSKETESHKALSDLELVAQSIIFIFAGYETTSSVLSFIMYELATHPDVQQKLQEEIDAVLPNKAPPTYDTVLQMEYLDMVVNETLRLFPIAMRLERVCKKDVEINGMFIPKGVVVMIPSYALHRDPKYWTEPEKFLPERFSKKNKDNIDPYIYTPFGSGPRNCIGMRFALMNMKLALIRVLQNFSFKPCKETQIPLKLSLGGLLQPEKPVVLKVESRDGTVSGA

On to `Cc1cc2c(F)c(Oc3ncnn4cc(OC[C@@H](C)O)c(C)c34)ccc2[nH]1` [BRIVANIB], for which the Drug metabolism result on Sulfotransferase 1E1, on Cytochrome P450 2E1, at Cytochrome P450 2B6 [1], on Cytochrome P450 2D6, at Cytochrome P450 2B6 [2] and at Cytochrome P450 2A6 was “metabolite_detected” each time. In addition, the Drug metabolism entry in the data set on Liver microsome [3] is on record as “metabolite_not_detected”; with Liver microsome [4], “metabolite_detected”; in the data set with Liver microsome [5] it was “metabolite_detected”; on Cytochrome P450 2B6 [7], “metabolite_detected”; in the data set with Liver microsome [8] it was “metabolite_not_detected”. Moreover, the CL on Cytochrome P450 3A4 was found to be 0.016 µL/min. Also, in data set [6], the maximal velocity (Vmax) is 89.1 pmol/min.
